US20250296937A1, “CYCLIC BISBENZYL TETRAHYDROISOQUINOLINE COMPOUND, AND PREPARATION METHOD THEREFOR AND USE THEREOF” (Shanghai Institute of Materia Medica, Chinesse Academy of …, priority 2021, published 2025)
Entries after “also recorded” stand apart in the source; their conditions may differ. Read-outs that look alike come from different tables or passages of the source.

How the values were obtained:
[1] = tested on: 2019 novel coronavirus (SARS-CoV-2) original strain; assay: Replication inhibitory activity against SARS-CoV-2 original strain in Vero E6 cells (qRT-PCR); type: cell-based; conditions: read-out: Inhibition against viral replication of the original strain EC50
[2] = tested on: HCoV OC43 virus; assay: Inhibition against HCoV OC43 virus replication; type: cell-based, human coronavirus HCoV OC43
[3] = target: novel coronavirus envelope protein (2-E) ion channel (Severe acute respiratory syndrome coronavirus 2, UniProt P0DTC4); assay: Novel coronavirus envelope protein (2-E) ion channel activity test, planar lipid bilayer (BLM); type: biochemical, SARS-CoV-2; conditions: room temperature, 1, 10, 50, 100 μM, read-out: Inhibition against 2-E ion channels IC50
[4] = target: T1, hERG potassium channel (Homo sapiens, UniProt Q12809); assay: hERG potassium channel whole-cell membrane clamp in CHO cells; type: cell-based; conditions: CHO cells stably expressing hERG, whole-cell membrane clamp
T1 construct: expressed in transfected cells
Experimental: Compounds were given for at least 1 min for each tested concentration, and at least 2 cells (n≥2) were tested per concentration.

[5] = Cytotoxicity test on Vero E6 cells (CCK8); type: cell-based; conditions: African green monkey; Vero E6 cells, CCK8 kit
Experimental: (§1) In this embodiment, the half toxicity concentration of each embodiment on Vero E6 cells was determined by CCK8 kit analysis (CC50).

[6] = tested on: Vero E6 cells; assay: Cytotoxicity test on Vero E6 cells (CCK8); type: cell-based; conditions: Vero E6 cells
Experimental: as §1

[7] = tested on: Raw 264.7 cells; assay: Cell viability in LPS-induced inflammation model of Raw 264.7 cells (CCK-8); type: cell-based; conditions: 1 μg/ml LPS, 1 μM compound, 16 hours
Experimental: (§2) In this example, the effect of the compounds of the present invention on the inflammation level of the LPS-induced inflammation model of Raw 264.7 cells was analyzed by cell viability in combination with inflammatory factors; cell viability was analyzed by CCK-8 assay; and mRNA expression levels of inflammation-related indicators were detected by a real-time quantitative PCR (Q-PCR) method. Raw 264.7 cells were purchased from ATCC; CCK-8 kit was purchased from Meilunbio, item no. MA0218-3; LPS was purchased from Sigma, item no. L2630.
(§3) Experimental methods: first, 8000 cells/well Raw 264.7 cells were placed in 96-well plates and incubated overnight. On the second day, 0.1% DMSO was added to the control cells, 1 μg/ml LPS as well as 0.1% DMSO was added to the model group, 1 μg/ml LPS as well as 1 μM of the compounds (oxyacanthine hydrochloride (oxy), 1, 2, tetrandrine (tet), 3, 4, 6, 58) was added to the treatment group, and the 96-well plates were sterilized and incubated in a constant temperature incubator for 16 hours. Finally, the viability of the cells was detected using the CCK-8 kit.

[8] = tested on: Raw 264.7 cells; assay: Cell viability in TNF-α induced inflammation model of Raw 264.7 cells (CCK-8); type: cell-based; conditions: 10 ng/ml TNF-α, 1 μM compound, 16 hours
Experimental: (§4) In this embodiment, the effect of compounds on TNF-α-induced inflammation levels in Raw 264.7 cells was analyzed by cell viability combined with inflammatory factor expression levels; cell viability was analyzed by CCK-8 assay; and mRNA expression levels of inflammation-associated indicators were detected by real-time quantitative PCR (Q-PCR) method. Raw 264.7 cells were purchased from ATCC, CCK-8 kit was purchased from Meilunbio, item number MA0218-3, TNF-α was purchased from Merck, item no. GF314.
as §3, with “10 ng/ml TNF-α” for “1 μg/ml LPS”

[9] = tested on: inflammatory factor mRNA in Raw 264.7 cells; assay: mRNA levels of inflammatory indicators in TNF-α-induced inflammation model of Raw264.7 cells (Q-PCR); type: cell-based; conditions: 10 ng/ml TNF-α, 1 μM compound, 16 hours
Experimental: as §4
as §3, with “5*10^4” for “8000”, “12-well” for “96-well”, “10 ng/ml TNF-α” for “1 μg/ml LPS”, “Cellular mRNA was extracted by lysis using Trizol (Yisheng, 10606ES60) and detected by real-time quantitative PCR after reverse transcription,” for “Finally,”, “primers are” for “viability of”, “same as in Table 2.” for “cells was detected using the CCK-8 kit.”

[10] = tested on: TNF-α and IL1β mRNA in A549 cells; assay: mRNA levels of injury indicators in TNF-α-induced A549 cell injury (Q-PCR); type: cell-based; conditions: 10 ng/ml TNF-α, 1 μM compound, 24 hours
Experimental: In this example, cell viability combined with cell death-associated molecules were used to analyze the effect of compounds on the level of TNF-α-induced injury in A549 lung epithelial cells. Cell injury was observed by microscopy; cell viability was analyzed by CCK-8 assay; and mRNA expression levels of injury-related indicators were detected by real-time quantitative PCR (Q-PCR) method. A549 cells were purchased from ATCC, CCK-8 kit was purchased from Meilunbio, item no. MA0218-3, and LPS was purchased from Sigma, item no. L2630.
(§5) Experimental methods: first, 5*10^4 cells/well A549 cells were placed in 12-well plates and incubated overnight. On the second day, 0.1% DMSO was added to the control cells, 10 ng/ml TNF-α as well as 0.1% DMSO was added to the model group, 10 ng/ml TNF-α as well as 1 μM of the compounds (oxy, 1, 2, tet, 3, 4, 6, 58) was added to the treatment group, and the 12-well plates were sterilized and incubated in a constant temperature incubator for 24 hours. Cellular mRNA was extracted by lysis using Trizol (Yisheng, 10606ES60) and detected by real-time quantitative PCR after reverse transcription.

[11] = tested on: ALM12 hepatocytes; assay: Anti H2O2-induced necrotic injury assay in ALM12 hepatocytes (microscopy, CCK-8); type: cell-based; conditions: 2 mM H2O2, 1 μM compound, 3 hours, microscope and CCK-8
Experimental: In this example, the effect of the compounds of the present invention on the level of necrotic injury induced by H2O2 in ALM12 hepatocytes was analyzed by microscopic morphological observations, cell viability in combination with cell death-associated molecules. Cell viability was analyzed by CCK-8 assay. ALM12 cells were cultured in 1640 medium (gibco, c11995500BT)+10% FBS (gibco, 10099141C) in a constant temperature incubator at 37° C., 5% CO2; the CCK-8 kit was purchased from Meilunbio, item no. MA0218-3; H2O2 was purchased from Sinopharm Chemical Reagent Co. item no. 10011208.
(§6) Experimental methods: first, 8000 cells/well ALM12 cells were placed in 96-well plates and incubated overnight. On the second day, 0.1% DMSO was added to the control cells, 2 mM H2O2 as well as 0.1% DMSO was added to the model group, 2 mM H2O2 as well as 1 μM of the compounds (oxy, 1, 2, tet, 3, 4, 6, 58) was added to the treatment group, and the 96-well plates were sterilized and incubated in a constant temperature incubator for 3 hours. Finally, cell injury and growth were observed using a microscope; the viability of the cells was detected by CCK-8 kit.

[12] = tested on: Th1/Th17 differentiation of CD4+T cells; assay: CD4+T cell in vitro differentiation assay (Th1 IFN-γ / Th17 IL-17A, flow cytometry); conditions: 10 μM, 72 h, IFN-γ/IL-17A by flow cytometry
Experimental: CD4^+T cell isolation: CD4^+T cells were isolated from the spleens of 7-8 week old C57BL/6 mice using the Mouse CD4^+T Cell Sorting Kit (Dynabeads® Untouched™ Mouse CD4 Cells Isolation Kit, Invitrogen, Catalog nos: 11415D).
In vitro differentiation of CD4^+T cells: the isolated CD4^+T cells were inoculated into 96-well plates while different concentrations of compounds were added, and then corresponding cytokines and antibodies were added: anti-CD28 (2 μg/ml), anti-CD3 (2 μg/ml), Anti-IL-4 (10 μg/ml), IL-12 (10 ng/ml), Anti-IFN-γ (10 μg/ml), anti-IL-4 (10 μg/ml), IL-6 (30 ng/ml), TGF-β1 (3 ng/ml), IL-10 (10 ng/ml), IL-23 (10 ng/ml), and TNF-α (10 ng/ml). Cells were cultured in 5% CO2 at 37° C. in a cell culture chamber for 72 h. Cells were collected, stained intracellularly, analyzed by flow cytometry, and tested for IFN-γ/IL-17A content to assess the effect of compounds on CD4^+T differentiation into Th1/Th17 in vitro.

[13] = tested on: IL-6, IL-1β, CXCL9 mRNA in Raw 264.7 cells; assay: mRNA levels of inflammatory indicators in LPS-induced inflammation model of Raw264.7 cells (Q-PCR); type: cell-based; conditions: 1 μg/ml LPS, 1 μM compound, 16 hours
Experimental: as §2
as §5, with “Raw 264.7” for “A549”, “1 μg/ml LPS” for “10 ng/ml TNF-α”, “(oxyacanthine hydrochloride (oxy),” for “(oxy,”, “tetrandrine (tet),” for “tet,”, “16” for “24”

[14] = tested on: A549 lung epithelial cells; assay: Anti TGF-β1-induced fibrosis assay in A549 lung epithelial cells (microscopy, Western Blot); type: cell-based; conditions: 10 ng/ml TGF-β1, 1 μM compound
Experimental: Cell injury was observed by microscopic observation; cell viability was analyzed by CCK-8 assay; and protein expression levels of fibrosis-related indicators were detected by Western Blot method. A549 cells were purchased from ATCC; CCK-8 kit was purchased from Meilunbio, item number MA0218-3; TGF-β1 was purchased from MCE, item number HY-P70543; primary antibodies: Collagen was purchased from ARG21965, item no. arigobio; α-smooth muscle actin was purchased from CST, item no. mAb #19245; VIMENTN was purchased from CST, item no. mAb #5741; GAPDH was purchased from Yeasen, item no. 30201ES20.
as §6, with “cells/well A549” for “cells/well ALM12”, “cells, 10 ng/ml TGF-β1” for “cells, 2 mM H2O2”, “group, 10 ng/ml TGF-β1” for “group, 2 mM H2O2”, “for 72” for “for 3”

[15] = Severe acute respiratory syndrome coronavirus 2, Vero C1008, Vero E6 cells, MOI 0.01, 24 h p.i., viral copy number by qRT-PCR

T1 sequence (Q12809 whole entry): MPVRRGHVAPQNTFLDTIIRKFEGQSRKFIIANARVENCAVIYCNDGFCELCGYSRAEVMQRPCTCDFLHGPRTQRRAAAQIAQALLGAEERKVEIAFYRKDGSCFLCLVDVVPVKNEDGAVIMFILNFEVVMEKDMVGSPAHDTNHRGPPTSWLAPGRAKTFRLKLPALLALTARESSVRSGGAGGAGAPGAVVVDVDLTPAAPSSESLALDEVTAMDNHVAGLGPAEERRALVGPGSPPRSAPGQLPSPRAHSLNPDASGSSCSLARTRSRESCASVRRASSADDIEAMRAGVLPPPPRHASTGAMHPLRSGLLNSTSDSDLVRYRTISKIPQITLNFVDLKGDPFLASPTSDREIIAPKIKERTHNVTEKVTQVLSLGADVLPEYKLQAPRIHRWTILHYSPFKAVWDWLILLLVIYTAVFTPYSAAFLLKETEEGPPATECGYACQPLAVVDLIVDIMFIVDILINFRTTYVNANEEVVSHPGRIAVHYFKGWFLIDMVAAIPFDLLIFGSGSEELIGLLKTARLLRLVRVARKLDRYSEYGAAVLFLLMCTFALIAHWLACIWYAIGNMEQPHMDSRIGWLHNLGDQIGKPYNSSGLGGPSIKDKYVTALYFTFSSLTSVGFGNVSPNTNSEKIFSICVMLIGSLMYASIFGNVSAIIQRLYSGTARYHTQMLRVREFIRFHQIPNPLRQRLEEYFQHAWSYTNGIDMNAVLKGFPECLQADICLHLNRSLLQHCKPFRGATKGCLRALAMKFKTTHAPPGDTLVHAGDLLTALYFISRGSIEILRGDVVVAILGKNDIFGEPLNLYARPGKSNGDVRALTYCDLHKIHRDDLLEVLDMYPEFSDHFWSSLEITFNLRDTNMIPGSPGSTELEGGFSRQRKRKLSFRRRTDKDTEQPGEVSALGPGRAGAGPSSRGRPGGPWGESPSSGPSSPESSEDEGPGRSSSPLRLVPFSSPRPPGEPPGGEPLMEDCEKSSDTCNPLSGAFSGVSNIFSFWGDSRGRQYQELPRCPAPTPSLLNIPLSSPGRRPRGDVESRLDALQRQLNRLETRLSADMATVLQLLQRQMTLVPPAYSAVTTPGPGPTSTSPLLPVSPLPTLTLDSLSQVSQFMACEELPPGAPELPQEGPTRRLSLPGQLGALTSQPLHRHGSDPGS
Chain of novel coronavirus envelope protein (2-E) ion channel (P0DTC4 whole entry, looked up): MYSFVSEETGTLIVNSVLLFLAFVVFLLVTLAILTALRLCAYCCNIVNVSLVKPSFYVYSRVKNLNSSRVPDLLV

Row | Compound | EC50 [1, 15] | inhibition against human coronavirus HCoV OC43 [2] | EC50 ([2]; Betacoronavirus 1, OC43) | IC50 [3] | IC50 [4] | IC50 [5] | cytotoxicity on Vero E6 cells compared with oxyacanthine hydrochloride [6] | cell viability in LPS-induced inflammation model [7] | cell viability in TNF-α-induced inflammation model [8] | inhibition of inflammatory factors (mRNA) in TNF-α-induced inflammation model [9] | inhibition of injury (damage) factors mRNA in TNF-α-induced A549 lung cell injury model [10] | alleviation of H2O2-induced ALM12 hepatocyte injury [11] | inhibitory effect on Th1/Th17 differentiation [12] | inhibition of inflammatory factors (IL-6, IL-1β, CXCL9 mRNA) in LPS-induced inflammation model [13] | EC50 [1] | IC50 ([6]; CCK8 kit) | alleviation of TGF-β1-induced fibrosis in A549 lung epithelial cells (Collagen1, α-SMA by WB) [14]
1 | COC(=O)c1ccc2cc1Oc1ccc(cc1)C[C@H]1c3c(cc(OC)c(OC)c3Oc3cc4c(cc3OC)CCN(C)[C@@H]4C2)CCN1C [Compound 3] | 0.1 to 1 µM | strong inhibition | 2.3 µM | < 10 µM | 7 µM | 30 to 50 µM | weaker cytotoxicity than oxyacanthine hydrochloride | did not affect cell viability | did not affect cell viability | significantly inhibited inflammatory factors; also recorded: significant inhibition | significantly inhibited the damage factors | significantly alleviated | strong inhibitory effect | – | – | – | –
2 | COc1cc2c3cc1Oc1c(OC)c(OC)cc4c1[C@H](Cc1ccc(cc1)Oc1cc(ccc1C(=O)NC1CC1)C[C@H]3N(C)CC2)N(C)CC4 [Compound 6] | 0.1 to 1 µM | – | – | – | 8.9 µM | > 50 µM | weaker cytotoxicity than oxyacanthine hydrochloride | did not affect cell viability | did not affect cell viability | significantly inhibited inflammatory factors; also recorded: significant inhibition | – | significantly alleviated | strong inhibitory effect | – | – | – | –
3 | COc1cc2c3cc1Oc1c(OC)c(OC)cc4c1[C@H](Cc1ccc(cc1)Oc1cc(ccc1C(=O)OCCOCCO)C[C@H]3N(C)CC2)N(C)CC4 [Compound 58] | 0.1 to 1 µM | – | – | – | 16.5 µM | > 50 µM | weaker cytotoxicity than oxyacanthine hydrochloride | did not affect cell viability | did not affect cell viability | significantly inhibited inflammatory factors; also recorded: significant inhibition | significantly inhibited the damage factors | significantly alleviated | strong inhibitory effect | significantly inhibited inflammatory factors; also recorded: significant inhibition | – | – | –
4 | oxyacanthine hydrochloride [reference compound] | – | – | – | > 100 µM | – | – | – | – | – | significant inhibition | significantly inhibited | – | – | significant inhibition | > 10 µM | < 30 µM | partially alleviate fibrosis
